Data reported in patent US10201556B2, “Combination for use in treating diseases or conditions associated with melanoma, or treating diseases or conditions associated with activated B-raf pathway” (InteRNA Technologies B.V., priority 2012, dated 2019).
Entries after “also recorded” stand apart in the source; their conditions may differ.

How the values were obtained:
Type in all cases: cell-based, human
[1] = test system: A375Hu melanoma cell line; experiment: Anti-proliferative effect of miRNA mimics, MTS assay; conditions: 10 nM mimic, 72 hours after transfection
Protocol: (§1) The anti-proliferative effect of miRNA's in melanoma cell lines was determined with mature miRNA mimics from Ambion. For each cell line optimal growth and transfection conditions were determined prior to the experiment. Cells were plated in a 96-well plate at 3000 cells per well (100 uL) and were grown at 37 C, 5% CO2. Transfection mix (20 uL per well) was made for each miRNA mimic concentration with 0.3 uL (M249, M249-R4) or 0.5 uL (A375Hu, A375Hu-R1, A2058, RPMI-7951) X-TremeGene (Roche) per well (according to manufacturer's instructions) in Optimem (Invitrogen). Cells were transfected 24 hours after plating in triplicate. Medium was replaced 48 hours after transfection with fresh medium.

[2] = test system: A375Hu-R1 melanoma cell line; experiment: as above; conditions: 10 nM mimic, 72 hours after transfection
Protocol: as §1

phospho-ERK1/2 = experiment: Western immunoblotting of phospho-ERK1/2 protein levels; conditions: Western blot
Protocol: (§2) A375Hu cells were seeded in 6-well plates and transfected with different concentrations (10, 50 and 100 nM) of synthetic hsa-miR-129-5p or BRAF siRNA (100 nM) using RNAiMAX (7.5 μl/well). As control a scrambled miRNA and a non-targeting siRNA pool were included. Proteins were harvested 72 hrs post transfection using RIPA buffer supplemented with HALT™ Phosphatase Inhibitor (Thermo Scientific) and Protease Inhibitor Cocktail (Sigma). Fifteen μg protein was loaded on 7.5% TGX acrylamide gels (Bio-Rad) and subsequently transferred to PVDF membranes. The membranes were blocked in 5% milk in TBS-T and incubated O/N at 4° C. with primary antibodies to bRAF, phosphoERK1/2, CDK6, and tubulin (Santa Cruz). After incubation with secondary goat-anti-mouse antibodies (Santa Cruz), membranes were developed using ECL (Pierce).
as §2, with “(1, 10” for “(10, 50”, “hsa-miR-3157” for “hsa-miR-129-5p”, “bRAF, total ERK1/2,” for “bRAF,”, “CDK4, BCL2” for “CDK6,”
as §2, with “concentrations” for “concentrations (10, 50 and 100 nM)”, “vemurafenib (PLX-4032, 0.01, 0.1, 1 uM).” for “synthetic hsa-miR-129-5p or BRAF siRNA (100 nM) using RNAiMAX (7.5 μl/well). As control a scrambled miRNA and a non-targeting siRNA pool were included.”, “bRAF, total ERK1/2,” for “bRAF,”, “CDK4, BCL2” for “CDK6,”
(§3) A2058 cells were seeded in 6-well plates and transfected with different concentrations (1, 10 and 100 nM) of synthetic hsa-miR-3157-5p or BRAF siRNA using X-TremeGene (Roche, 15 μl/well). As control a scrambled miRNA was included. Proteins were harvested 72 hrs post transfection using RIPA buffer supplemented with HALT™ Phosphatase Inhibitor (Thermo Scientific) and Protease Inhibitor Cocktail (Sigma). Fifteen μg protein was loaded on 10% TGX acrylamide gels (Bio-Rad) and subsequently transferred to PVDF membranes. The membranes were blocked in 5% milk in TBS-T and incubated O/N at 4° C. with primary antibodies to bRAF, total ERK1/2, phosphoERK1/2, BCL2, CDK4 and tubulin (Santa Cruz). After incubation with secondary goat-anti-mouse antibodies (Santa Cruz), membranes were developed using ECL (Pierce).
Transfection was performed as described in Example 4 in 6-well format. Proteins were isolated using RIPA buffer (50 mM Tris pH 8.0, 150 mM NaCL, 1% NP-40, 0.5% Sodium deoxycholate, 0.1% SDS), supplemented with Protease Inhibitor Cocktail (Sigma) and Halt™ Phosphatase Inhibitor Cocktail (Pierce/Thermo Scientific). […]

CDK4 = experiment: Western immunoblotting of CDK4 protein levels
Protocol: as §2, with “(1, 10” for “(10, 50”, “hsa-miR-3157” for “hsa-miR-129-5p”, “bRAF, total ERK1/2,” for “bRAF,”, “CDK4, BCL2” for “CDK6,”
as §2, with “concentrations” for “concentrations (10, 50 and 100 nM)”, “vemurafenib (PLX-4032, 0.01, 0.1, 1 uM).” for “synthetic hsa-miR-129-5p or BRAF siRNA (100 nM) using RNAiMAX (7.5 μl/well). As control a scrambled miRNA and a non-targeting siRNA pool were included.”, “bRAF, total ERK1/2,” for “bRAF,”, “CDK4, BCL2” for “CDK6,”
as §3
(§4) Transfection was performed as described in Example 4 in 6-well format. Proteins were isolated using RIPA buffer (50 mM Tris pH 8.0, 150 mM NaCL, 1% NP-40, 0.5% Sodium deoxycholate, 0.1% SDS), supplemented with Protease Inhibitor Cocktail (Sigma) and Halt™ Phosphatase Inhibitor Cocktail (Pierce/Thermo Scientific). Fifteen μg protein was loaded on a 12% Mini-PROTEAN® TGX™ Precast Gel (Bio-Rad), and proteins were transferred to Immun-Blot PVDF Membrane (Bio-Rad). Membranes were blocked in 5% milk or 5% BSA in TBS-T, and incubated O/N at 4° C. with primary antibodies against α-tubulin (1:5000), BRAF, pERK1/2, CDK4, RRM2 (all 1:1000), BCL-2 (1:500) (Santa Cruz), total-ERK1/2 (1:2000), BIRC5, AURKB (1:1000) (Cell Signaling), ERK1 (1:2000) (GeneTex). After incubation with appropriate secondary antibodies and western blot chemiluminescence substrate ECL (Pierce/Thermo Scientific), membranes were exposed to CL-XPosure Film (Pierce/Thermo Scientific).

RRM2 = experiment: Western blotting of RRM2 protein levels
Protocol: as §4

AURKB = experiment: Western blotting of AURKB protein levels
Protocol: as §4

[3] = A375 cells, increasing concentrations of mimic (FIG. 12c)
[4] = A2058, M249, M249-AR4 and M376, increasing concentrations of mimic (FIG. 14a)
[5] = vemurafenib-resistant A2058, M249-AR4 and M376, 1 μM, 24 hrs (FIG. 14b)
[6] = vemurafenib-sensitive A375 and M249, 1 μM, 24 hrs (FIG. 14b)

Row | Molecule | A375Hu % Viability 10 nM [1] [%] | A375Hu-R1 % Viability 10 nM [2] [%] | phospho-ERK1/2 protein levels (phospho-ERK1/2; A375Hu cells, 72 hrs) | phospho-ERK1/2 protein levels (phospho-ERK1/2; A2058 cells (vemurafenib resistant), 72 hrs post transfection) | CDK4 protein levels (CDK4; A375Hu cells, 72 hrs, Western blot) | CDK4 protein levels (CDK4; [3]) | CDK4 protein levels (CDK4; A2058, increasing concentrations of mimic (FIG. 14a)) | CDK4 protein levels (CDK4; A2058 cells (vemurafenib resistant), 72 hrs post transfection, Western blot) | CDK4 protein levels (CDK4; M249-AR4, increasing concentrations of mimic (FIG. 14a)) | CDK4 protein levels (CDK4; M249 and M376, increasing concentrations of mimic (FIG. 14a)) | RRM2 protein levels (RRM2; [3]) | RRM2 protein levels (RRM2; [4]) | AURKB protein levels (AURKB; [3]) | AURKB protein levels (AURKB; [4]) | phospho-ERK1/2 protein levels (phospho-ERK1/2; A375Hu cells, 72 hrs, listed as PLX-4032) | CDK4 protein levels (CDK4; A375Hu cells, 72 hrs, Western blot, listed as PLX-4032) | RRM2 protein levels (RRM2; [5]) | RRM2 protein levels (RRM2; [6]) | AURKB protein levels (AURKB; [5]) | AURKB protein levels (AURKB; [6])
1 | hsa-miR-3157-5p: mature miRNA mimic, SEQ ID NO 6 UUCAGCCAGGCUAGUGCAGUCU (listed as RNA, chemistry not given here) | 42 | 67 | does not down-regulate; also recorded: not affected | not down-regulated | significant reduction in CDK4 protein levels; also recorded: down-regulated | strong reduction | mild effect | reduction; also recorded: down-regulated | no effect | strong downregulation | most pronounced | strongly downregulated | most pronounced | strongly downregulated |  |  |  |  |  | 
2 | CCCS(=O)(=O)Nc1ccc(F)c(C(=O)c2c[nH]c3ncc(-c4ccc(Cl)cc4)cc23)c1F [Vemurafenib, N-(3-{[5-(4-chlorophenyl)-1H-pyrrolo[2,3-b]pyridin-3-yl]carbonyl}-2,4-difluorophenyl)propane-1-sulfonamide] |  |  | inhibits |  |  |  |  |  |  |  |  |  |  |  | down regulation | not in reduction of CDK4 and BCL2 protein levels | protein levels similar to control-treated cells | downregulated | protein levels similar to control-treated cells | downregulated
